Here are results for six compounds from paper PMC9300271, “Identifying Active Compounds and Mechanisms of Citrus changshan-Huyou Y. B. Chang against URTIs-Associated Inflammation by Network Pharmacology in Combination with Molecular Docking” (Evidence-based Complementary and Alternative Medicine : eCAM, 2022).

For data set [1] the following is noted: retrieved from database; ref TCMSP database [18]; cited from earlier work.
The next data set deals with PI3Kα (p110α/p85α) (Homo sapiens, UniProt P42336). The experiment in a line: ADP-Glo Kinase Assay, inhibition of PI3Kα. In general terms: ADP-Glo turns the ADP formed in a reaction into a luminescent signal.
Chain of PI3Kα (p110α/p85α) (P42336 whole entry): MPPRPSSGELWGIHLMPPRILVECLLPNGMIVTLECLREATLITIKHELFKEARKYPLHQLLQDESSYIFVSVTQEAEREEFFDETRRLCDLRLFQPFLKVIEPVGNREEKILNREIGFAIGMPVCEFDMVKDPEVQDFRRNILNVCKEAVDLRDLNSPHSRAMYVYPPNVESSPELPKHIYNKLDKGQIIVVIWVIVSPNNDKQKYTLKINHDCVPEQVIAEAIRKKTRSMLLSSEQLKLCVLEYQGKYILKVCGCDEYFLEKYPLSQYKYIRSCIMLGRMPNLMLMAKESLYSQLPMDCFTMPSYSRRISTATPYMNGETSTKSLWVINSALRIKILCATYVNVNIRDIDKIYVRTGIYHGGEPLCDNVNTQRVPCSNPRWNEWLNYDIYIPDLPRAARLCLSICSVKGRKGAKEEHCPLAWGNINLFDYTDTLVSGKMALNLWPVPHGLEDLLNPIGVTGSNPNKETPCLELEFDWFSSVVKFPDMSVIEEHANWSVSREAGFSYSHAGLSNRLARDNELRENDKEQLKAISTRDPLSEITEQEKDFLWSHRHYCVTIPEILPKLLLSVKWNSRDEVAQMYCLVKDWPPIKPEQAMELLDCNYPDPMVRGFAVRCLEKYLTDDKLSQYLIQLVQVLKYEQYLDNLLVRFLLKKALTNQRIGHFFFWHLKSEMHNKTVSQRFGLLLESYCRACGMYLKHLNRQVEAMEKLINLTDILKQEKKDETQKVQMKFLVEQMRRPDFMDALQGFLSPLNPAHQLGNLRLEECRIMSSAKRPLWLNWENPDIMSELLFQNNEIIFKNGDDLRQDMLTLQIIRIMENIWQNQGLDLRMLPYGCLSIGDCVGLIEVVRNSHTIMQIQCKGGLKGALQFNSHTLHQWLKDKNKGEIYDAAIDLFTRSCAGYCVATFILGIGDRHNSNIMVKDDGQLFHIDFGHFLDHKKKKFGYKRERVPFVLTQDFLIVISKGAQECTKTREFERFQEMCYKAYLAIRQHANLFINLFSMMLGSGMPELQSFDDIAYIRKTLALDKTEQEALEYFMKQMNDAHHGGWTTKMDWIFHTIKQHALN
Chain of PI3Kα (p110α/p85α) (P27986 whole entry partner): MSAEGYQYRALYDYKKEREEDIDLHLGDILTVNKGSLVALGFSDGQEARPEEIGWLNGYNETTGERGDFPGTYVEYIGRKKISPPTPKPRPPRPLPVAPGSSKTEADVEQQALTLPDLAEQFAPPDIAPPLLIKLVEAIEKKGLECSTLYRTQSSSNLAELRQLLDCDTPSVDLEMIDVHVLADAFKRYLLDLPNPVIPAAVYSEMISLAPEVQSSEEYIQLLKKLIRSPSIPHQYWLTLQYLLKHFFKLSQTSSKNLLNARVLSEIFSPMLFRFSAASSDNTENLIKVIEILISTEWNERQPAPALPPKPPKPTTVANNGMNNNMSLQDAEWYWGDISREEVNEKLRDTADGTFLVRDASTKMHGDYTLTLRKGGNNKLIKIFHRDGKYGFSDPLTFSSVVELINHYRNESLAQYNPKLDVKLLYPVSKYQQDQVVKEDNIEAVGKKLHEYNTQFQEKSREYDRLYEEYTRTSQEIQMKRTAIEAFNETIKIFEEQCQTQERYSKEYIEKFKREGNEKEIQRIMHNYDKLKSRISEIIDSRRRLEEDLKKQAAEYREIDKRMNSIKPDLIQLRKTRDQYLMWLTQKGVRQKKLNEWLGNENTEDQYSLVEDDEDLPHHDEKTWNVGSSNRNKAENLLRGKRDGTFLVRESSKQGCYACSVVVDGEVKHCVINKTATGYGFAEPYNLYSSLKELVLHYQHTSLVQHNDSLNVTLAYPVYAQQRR
The target of another data set is PI3Kβ (p110β/p85α) (Homo sapiens, UniProt P42338). Nature of the data set: ADP-Glo Kinase Assay, inhibition of PI3Kβ.
Chain of PI3Kβ (p110β/p85α) (P42338 whole entry): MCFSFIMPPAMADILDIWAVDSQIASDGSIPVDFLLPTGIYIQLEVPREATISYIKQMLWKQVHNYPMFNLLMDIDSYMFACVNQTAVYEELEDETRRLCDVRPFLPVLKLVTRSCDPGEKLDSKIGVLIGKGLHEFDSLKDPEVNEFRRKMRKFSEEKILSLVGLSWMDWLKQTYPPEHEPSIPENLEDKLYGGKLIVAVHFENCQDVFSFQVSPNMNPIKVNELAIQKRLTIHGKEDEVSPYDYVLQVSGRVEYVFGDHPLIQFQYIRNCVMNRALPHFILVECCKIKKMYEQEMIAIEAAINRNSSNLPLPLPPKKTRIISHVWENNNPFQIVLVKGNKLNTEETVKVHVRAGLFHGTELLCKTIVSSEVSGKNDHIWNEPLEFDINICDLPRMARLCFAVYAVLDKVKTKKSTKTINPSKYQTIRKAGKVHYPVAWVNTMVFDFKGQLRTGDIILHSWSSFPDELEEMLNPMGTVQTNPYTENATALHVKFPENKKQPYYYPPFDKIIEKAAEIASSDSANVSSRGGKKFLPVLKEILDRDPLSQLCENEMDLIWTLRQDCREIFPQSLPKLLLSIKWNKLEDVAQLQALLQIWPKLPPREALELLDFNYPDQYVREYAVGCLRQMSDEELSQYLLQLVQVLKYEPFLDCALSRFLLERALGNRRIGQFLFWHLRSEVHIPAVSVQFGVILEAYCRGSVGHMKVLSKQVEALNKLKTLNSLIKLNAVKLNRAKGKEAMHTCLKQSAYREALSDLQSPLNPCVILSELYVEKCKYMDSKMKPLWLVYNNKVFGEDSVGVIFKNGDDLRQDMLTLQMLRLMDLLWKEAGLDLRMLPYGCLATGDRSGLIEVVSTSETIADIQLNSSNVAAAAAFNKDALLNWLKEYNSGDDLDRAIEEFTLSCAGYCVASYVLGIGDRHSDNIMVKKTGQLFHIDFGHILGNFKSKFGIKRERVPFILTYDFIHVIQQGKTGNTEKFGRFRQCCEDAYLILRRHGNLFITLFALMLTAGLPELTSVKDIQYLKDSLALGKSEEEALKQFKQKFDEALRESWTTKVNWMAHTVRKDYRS
Chain of PI3Kβ (p110β/p85α) (P27986 whole entry partner): as the sequence (P27986 whole entry partner) above
In another data set the target is PI3Kγ (p120γ) (Homo sapiens, UniProt P48736). The experiment in a line: ADP-Glo Kinase Assay, inhibition of PI3Kγ.
Chain of PI3Kγ (p120γ) (P48736 whole entry): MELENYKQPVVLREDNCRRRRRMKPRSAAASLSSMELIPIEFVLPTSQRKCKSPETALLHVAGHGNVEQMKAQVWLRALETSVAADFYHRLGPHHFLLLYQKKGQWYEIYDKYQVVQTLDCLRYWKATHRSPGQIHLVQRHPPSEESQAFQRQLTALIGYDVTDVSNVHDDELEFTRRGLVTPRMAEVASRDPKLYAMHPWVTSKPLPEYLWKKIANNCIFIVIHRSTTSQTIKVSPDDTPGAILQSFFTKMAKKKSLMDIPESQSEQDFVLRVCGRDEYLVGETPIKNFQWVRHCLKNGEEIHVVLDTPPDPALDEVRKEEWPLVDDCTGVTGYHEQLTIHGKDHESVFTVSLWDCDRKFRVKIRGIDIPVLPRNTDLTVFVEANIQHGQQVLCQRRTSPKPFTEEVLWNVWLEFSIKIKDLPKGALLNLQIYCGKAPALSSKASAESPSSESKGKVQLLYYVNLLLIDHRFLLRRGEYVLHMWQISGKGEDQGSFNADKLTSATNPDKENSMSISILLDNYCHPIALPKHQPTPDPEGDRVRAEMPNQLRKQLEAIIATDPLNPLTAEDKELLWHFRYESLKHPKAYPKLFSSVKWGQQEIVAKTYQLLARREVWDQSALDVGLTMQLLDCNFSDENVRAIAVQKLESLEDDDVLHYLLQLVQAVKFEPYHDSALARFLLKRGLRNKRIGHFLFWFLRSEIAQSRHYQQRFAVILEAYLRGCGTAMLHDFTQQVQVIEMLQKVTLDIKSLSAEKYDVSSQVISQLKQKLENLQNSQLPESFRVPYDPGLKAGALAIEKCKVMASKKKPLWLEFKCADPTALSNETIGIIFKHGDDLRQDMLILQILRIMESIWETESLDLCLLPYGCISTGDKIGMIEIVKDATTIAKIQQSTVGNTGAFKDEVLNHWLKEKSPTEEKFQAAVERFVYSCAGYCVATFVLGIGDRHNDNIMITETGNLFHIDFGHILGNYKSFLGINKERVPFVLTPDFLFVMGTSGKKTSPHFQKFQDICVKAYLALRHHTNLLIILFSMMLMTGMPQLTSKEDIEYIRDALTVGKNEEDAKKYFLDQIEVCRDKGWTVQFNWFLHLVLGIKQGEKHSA
The next data set has as its target PI3Kδ (p110δ/p85α) (Homo sapiens, UniProt O00329). Nature of the data set: ADP-Glo Kinase Assay, inhibition of PI3Kδ.
Details of data set [2]: method as in TCMSP database [18]. Particulars: retrieved from database; ref TCMSP database [18]; in h (unit assumed); cited from earlier work.

Chain of PI3Kδ (p110δ/p85α) (O00329 whole entry): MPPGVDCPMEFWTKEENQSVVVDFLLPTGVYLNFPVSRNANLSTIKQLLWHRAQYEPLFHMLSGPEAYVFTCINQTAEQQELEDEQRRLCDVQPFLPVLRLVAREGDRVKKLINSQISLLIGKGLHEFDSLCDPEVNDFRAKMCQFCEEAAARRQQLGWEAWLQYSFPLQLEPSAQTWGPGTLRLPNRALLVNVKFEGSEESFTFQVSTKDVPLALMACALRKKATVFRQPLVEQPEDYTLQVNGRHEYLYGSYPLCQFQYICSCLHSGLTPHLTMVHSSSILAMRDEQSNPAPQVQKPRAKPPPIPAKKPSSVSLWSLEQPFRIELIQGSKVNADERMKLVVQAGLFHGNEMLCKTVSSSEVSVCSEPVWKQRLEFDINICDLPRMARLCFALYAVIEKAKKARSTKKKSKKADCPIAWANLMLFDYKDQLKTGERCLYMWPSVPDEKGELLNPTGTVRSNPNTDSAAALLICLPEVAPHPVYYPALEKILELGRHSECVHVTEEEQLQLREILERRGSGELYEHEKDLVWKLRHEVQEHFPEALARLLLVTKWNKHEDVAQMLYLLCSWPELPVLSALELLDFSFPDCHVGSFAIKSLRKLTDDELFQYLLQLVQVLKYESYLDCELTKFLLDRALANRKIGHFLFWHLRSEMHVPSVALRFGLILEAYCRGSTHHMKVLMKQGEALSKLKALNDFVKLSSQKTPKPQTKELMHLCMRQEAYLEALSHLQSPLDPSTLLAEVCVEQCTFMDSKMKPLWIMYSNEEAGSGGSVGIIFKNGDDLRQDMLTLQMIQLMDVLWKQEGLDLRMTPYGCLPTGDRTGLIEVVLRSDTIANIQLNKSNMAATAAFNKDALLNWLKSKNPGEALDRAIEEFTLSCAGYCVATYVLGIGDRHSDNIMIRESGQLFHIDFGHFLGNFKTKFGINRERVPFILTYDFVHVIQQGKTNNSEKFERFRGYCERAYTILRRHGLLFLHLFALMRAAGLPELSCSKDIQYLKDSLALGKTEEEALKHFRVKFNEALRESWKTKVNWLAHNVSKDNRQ
Chain of PI3Kδ (p110δ/p85α) (P27986 whole entry partner): as the sequence (P27986 whole entry partner) above

As usually defined, the IC50 is the concentration that gives 50% inhibition. Lower therefore signals greater potency. `CC(C)=CCC/C(C)=C/COc1ccc2ccc(=O)oc2c1` [AUR, auraptene]: in data set [1], the “OB (oral bioavailability)” value was 25.62%. Further, the IC50 on PI3Kα (p110α/p85α) was more than 40 µM; against PI3Kβ (p110β/p85α) it was more than 40 µM; against PI3Kγ (p120γ), 13.8 ± 1.31 µM; against PI3Kδ (p110δ/p85α), more than 40 µM.
For the compound `COc1ccc([C@@H]2CC(=O)c3c(O)cc(O)cc3O2)cc1O` [HES, hesperetin], the “HL (drug half-life)” value in data set [2] was 15.78. Moreover, the “OB (oral bioavailability)” value in data set [1] is recorded as 70.31%. Also, the IC50 on PI3Kα (p110α/p85α), on PI3Kβ (p110β/p85α), against PI3Kγ (p120γ) and against PI3Kδ (p110δ/p85α) was more than 40 µM throughout.
With `O=c1cc(-c2ccc(O)c(O)c2)oc2cc(O)cc(O)c12` [LUT, luteolin], the “HL (drug half-life)” value in data set [2] was 15.94. Further, the “OB (oral bioavailability)” value in data set [1] was 36.16%. The IC50 on PI3Kα (p110α/p85α) came to 2.49 ± 0.34 µM; on PI3Kβ (p110β/p85α), 2.95 ± 0.19 µM; on PI3Kγ (p120γ) it was 5.79 ± 0.1 µM; against PI3Kδ (p110δ/p85α), 1.55 ± 0.15 µM.
`O=C1C[C@@H](c2ccc(O)cc2)Oc2cc(O)cc(O)c21` [NAR, naringenin]: in data set [1], the “OB (oral bioavailability)” value is given as 59.29%. Besides, the IC50 on PI3Kα (p110α/p85α), against PI3Kβ (p110β/p85α), at PI3Kγ (p120γ) and on PI3Kδ (p110δ/p85α) was more than 40 µM each time.
As to `COc1ccc(-c2cc(=O)c3c(OC)c(OC)c(OC)c(OC)c3o2)cc1OC` [NOB, nobiletin], in data set [2], the “HL (drug half-life)” value is 16.20. Also, in data set [1], the “OB (oral bioavailability)” value was 61.67%.
Turning to `COc1ccc(-c2cc(=O)c3c(OC)c(OC)c(OC)c(OC)c3o2)cc1` [TAN, tangeretin], the “OB (oral bioavailability)” value in data set [1] is 21.38%. In addition, the IC50 was more than 40 µM on PI3Kα (p110α/p85α), more than 40 µM on PI3Kβ (p110β/p85α), 17.7 ± 1.16 µM at PI3Kγ (p120γ) and more than 40 µM on PI3Kδ (p110δ/p85α).
